# From patent publication US20150087627A1, “COMBINATION OF KINASE INHIBITORS AND USES THEREOF” (Intellikine LLC, priority 2011, published 2015)
# Like-named read-outs stand apart in the source and are kept apart here.
# Assays:
# Format in all cases: biochemical
# PI3K α (p110α/p85α) = target: T1, PI3K α (p110α/p85α) (Homo sapiens, UniProt P42336); assay: PI 3-Kinase (human) HTRF assay, PI3K α; conditions: read-out: PI3K α IC50
# T1 construct: purchased Upstate / Millipore Corporation
# PI3K β (p110β/p85α) = target: T2, PI3K β (p110β/p85α) (Homo sapiens, UniProt P42338); assay: PI 3-Kinase (human) HTRF assay, PI3K β; conditions: read-out: PI3K β IC50
# T2 construct: purchased Upstate / Millipore Corporation
# T2 sequence (P42338 whole entry): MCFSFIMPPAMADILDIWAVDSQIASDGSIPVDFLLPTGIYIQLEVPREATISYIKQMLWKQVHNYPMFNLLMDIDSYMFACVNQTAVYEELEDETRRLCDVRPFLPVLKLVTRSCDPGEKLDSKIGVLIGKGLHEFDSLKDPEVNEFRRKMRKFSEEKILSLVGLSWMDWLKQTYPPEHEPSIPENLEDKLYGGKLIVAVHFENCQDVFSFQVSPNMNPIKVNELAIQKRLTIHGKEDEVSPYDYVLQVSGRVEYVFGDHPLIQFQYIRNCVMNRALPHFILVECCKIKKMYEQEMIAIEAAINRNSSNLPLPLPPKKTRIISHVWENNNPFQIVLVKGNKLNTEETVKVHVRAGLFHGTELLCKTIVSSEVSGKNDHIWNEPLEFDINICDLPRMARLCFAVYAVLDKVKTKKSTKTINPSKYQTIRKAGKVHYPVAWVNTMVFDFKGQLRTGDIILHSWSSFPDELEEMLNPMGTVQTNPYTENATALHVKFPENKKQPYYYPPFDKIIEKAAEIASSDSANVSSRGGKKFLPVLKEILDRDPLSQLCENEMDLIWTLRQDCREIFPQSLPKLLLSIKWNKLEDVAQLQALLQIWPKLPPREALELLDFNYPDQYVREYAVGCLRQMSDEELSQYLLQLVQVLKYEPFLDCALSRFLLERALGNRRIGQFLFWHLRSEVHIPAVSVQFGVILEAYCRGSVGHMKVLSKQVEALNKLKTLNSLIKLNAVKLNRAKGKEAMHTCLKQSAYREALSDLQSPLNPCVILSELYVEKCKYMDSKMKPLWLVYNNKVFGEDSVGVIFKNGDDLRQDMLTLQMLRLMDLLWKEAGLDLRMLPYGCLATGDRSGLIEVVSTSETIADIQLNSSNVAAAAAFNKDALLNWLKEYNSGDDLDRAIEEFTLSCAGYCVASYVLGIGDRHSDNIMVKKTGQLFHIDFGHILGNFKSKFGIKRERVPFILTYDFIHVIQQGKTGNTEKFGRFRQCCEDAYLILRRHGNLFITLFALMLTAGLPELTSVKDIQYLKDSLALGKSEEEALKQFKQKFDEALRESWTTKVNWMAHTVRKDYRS
# T2 sequence (P27986 whole entry partner): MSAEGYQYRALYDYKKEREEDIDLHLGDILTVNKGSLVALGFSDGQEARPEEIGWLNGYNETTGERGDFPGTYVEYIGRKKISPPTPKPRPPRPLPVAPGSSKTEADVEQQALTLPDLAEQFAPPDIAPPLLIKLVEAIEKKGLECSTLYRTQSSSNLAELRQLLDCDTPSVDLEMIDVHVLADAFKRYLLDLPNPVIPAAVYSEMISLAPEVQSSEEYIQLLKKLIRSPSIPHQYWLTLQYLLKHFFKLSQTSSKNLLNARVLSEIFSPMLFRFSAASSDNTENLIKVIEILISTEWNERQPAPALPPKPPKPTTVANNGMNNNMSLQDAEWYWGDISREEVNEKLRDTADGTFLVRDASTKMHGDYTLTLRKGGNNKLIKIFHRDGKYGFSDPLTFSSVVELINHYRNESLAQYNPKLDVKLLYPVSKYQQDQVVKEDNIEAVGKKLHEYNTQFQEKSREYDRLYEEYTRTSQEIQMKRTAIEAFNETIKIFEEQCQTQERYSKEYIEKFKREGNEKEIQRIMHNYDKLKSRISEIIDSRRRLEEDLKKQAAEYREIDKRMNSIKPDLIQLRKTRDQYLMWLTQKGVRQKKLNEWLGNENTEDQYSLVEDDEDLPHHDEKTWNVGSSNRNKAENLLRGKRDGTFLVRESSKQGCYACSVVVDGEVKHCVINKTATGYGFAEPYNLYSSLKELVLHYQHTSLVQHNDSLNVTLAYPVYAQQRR
# PI3K δ = target: T3, PI3K δ (Homo sapiens, UniProt O00329); assay: PI 3-Kinase (human) HTRF assay, PI3K δ; conditions: read-out: PI3K δ IC50
# T3 construct: purchased Upstate / Millipore Corporation
# T3 sequence (O00329 whole entry): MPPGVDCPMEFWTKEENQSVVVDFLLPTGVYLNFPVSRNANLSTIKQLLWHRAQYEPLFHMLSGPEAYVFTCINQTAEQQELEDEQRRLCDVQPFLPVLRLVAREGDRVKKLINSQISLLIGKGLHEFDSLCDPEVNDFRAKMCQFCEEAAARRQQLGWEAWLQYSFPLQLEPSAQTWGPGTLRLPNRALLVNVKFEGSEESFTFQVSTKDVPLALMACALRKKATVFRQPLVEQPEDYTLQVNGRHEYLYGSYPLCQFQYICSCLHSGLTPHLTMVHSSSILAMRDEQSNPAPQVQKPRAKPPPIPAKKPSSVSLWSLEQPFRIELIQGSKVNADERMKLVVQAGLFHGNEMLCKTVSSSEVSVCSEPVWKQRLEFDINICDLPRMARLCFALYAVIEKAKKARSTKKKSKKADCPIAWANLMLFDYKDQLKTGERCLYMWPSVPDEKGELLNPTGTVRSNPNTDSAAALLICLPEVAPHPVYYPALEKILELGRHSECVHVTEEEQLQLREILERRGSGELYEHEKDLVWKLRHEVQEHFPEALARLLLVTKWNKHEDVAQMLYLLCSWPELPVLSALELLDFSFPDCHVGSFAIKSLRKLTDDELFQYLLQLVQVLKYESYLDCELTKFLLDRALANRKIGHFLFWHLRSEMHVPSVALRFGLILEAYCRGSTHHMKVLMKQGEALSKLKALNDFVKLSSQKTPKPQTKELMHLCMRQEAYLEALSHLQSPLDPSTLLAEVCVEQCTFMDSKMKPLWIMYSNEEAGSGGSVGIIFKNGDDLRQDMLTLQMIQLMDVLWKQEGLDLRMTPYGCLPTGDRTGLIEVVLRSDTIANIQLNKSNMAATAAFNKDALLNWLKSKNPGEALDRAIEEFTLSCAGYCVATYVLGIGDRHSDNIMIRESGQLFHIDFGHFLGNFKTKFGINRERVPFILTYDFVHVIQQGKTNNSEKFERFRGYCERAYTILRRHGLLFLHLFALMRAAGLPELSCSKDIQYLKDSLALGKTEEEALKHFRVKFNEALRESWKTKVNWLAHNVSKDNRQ
# T3 sequence (P27986 whole entry partner): as the sequence (P27986 whole entry partner) above
# T1 sequence (P42336 whole entry): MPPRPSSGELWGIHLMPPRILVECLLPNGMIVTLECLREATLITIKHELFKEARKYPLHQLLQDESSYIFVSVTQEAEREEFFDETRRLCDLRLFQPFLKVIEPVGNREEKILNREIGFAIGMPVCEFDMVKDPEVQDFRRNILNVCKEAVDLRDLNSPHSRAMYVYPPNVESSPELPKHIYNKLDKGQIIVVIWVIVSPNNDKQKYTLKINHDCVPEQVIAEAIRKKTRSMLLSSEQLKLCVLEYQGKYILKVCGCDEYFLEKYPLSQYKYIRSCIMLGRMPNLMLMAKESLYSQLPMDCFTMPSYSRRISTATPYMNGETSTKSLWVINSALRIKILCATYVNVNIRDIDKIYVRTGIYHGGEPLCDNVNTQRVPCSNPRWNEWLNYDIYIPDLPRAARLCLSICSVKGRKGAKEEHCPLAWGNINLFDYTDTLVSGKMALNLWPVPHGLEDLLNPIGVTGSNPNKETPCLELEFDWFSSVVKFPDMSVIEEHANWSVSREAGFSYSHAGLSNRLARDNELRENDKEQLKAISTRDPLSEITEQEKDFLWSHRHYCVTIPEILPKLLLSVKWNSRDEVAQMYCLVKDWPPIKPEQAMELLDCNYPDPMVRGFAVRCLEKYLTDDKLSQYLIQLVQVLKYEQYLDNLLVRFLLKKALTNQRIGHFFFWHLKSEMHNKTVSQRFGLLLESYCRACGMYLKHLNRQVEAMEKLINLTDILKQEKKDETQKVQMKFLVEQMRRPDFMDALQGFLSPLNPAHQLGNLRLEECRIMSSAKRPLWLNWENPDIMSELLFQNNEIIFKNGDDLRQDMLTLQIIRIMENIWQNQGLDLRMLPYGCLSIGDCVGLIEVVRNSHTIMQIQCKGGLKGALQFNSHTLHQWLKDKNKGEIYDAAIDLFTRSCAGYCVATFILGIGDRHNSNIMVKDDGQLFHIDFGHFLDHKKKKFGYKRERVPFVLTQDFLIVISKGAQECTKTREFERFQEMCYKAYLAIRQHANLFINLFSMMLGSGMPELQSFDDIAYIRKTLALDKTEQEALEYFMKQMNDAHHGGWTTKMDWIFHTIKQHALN
# T1 sequence (P27986 whole entry partner): as the sequence (P27986 whole entry partner) above
IC50 (PI3K α (p110α/p85α)),IC50 (PI3K β (p110β/p85α)),IC50 (PI3K δ),IC50 (PI3K α (p110α/p85α); Table 4 (PI3K α inhibitors)),IC50 (PI3K β (p110β/p85α); Table 4 (PI3K α inhibitors)),IC50 (PI3K δ; Table 4 (PI3K α inhibitors)),SMILES
< 100 nM,,< 100 nM,,,,Nc1nc2cc(-c3ccc4ncc(-c5cccnc5)n4c3)ccc2o1 [Compound 37]
< 100 nM,,< 100 nM,,,,Nc1nc2cc(-c3ccc4ncc(C#CC5CC5)n4c3)ccc2o1 [Compound 39]
< 100 nM,< 1000 nM,< 1000 nM,,,,Nc1nc2cc(-c3ccc4ncc(-c5cn[nH]c5)nc4c3)ccc2o1 [Compound 78]
< 100 nM,< 1000 nM,< 10000 nM,,,,Cn1cc(-c2cnc3ccc(-c4ccc5oc(N)nc5c4)cc3n2)cn1 [Compound 94]
< 100 nM,< 1000 nM,< 1000 nM,,,,CN(C)CC(=O)N1CCC(Nc2ncnc3ccc(-c4ccc5oc(N)nc5c4)cc23)CC1 [Compound 103]
< 1000 nM,< 100 nM,> 10000 nM,,,,CN1CCN(c2cnc3ccc(-c4ccc5nc(N)oc5c4)cc3n2)CC1 [Compound 118]
< 1000 nM,< 1000 nM,< 1000 nM,,,,CC1CN(c2cnc3ccc(-c4ccc5oc(N)nc5c4)cc3n2)CC(C)N1 (stereo not shown) [Compound 131]
< 100 nM,< 1000 nM,< 1000 nM,,,,CC(N)C(=O)N1CCN(c2cnc3ccc(-c4ccc5oc(N)nc5c4)cc3n2)CC1 (stereo not shown) [Compound 134]
< 1000 nM,< 10000 nM,> 10000 nM,,,,CN1CCN(C(=O)c2cnc3ccc(-c4ccc5sc(N)nc5c4)cn23)CC1 [Compound 144]
< 1000 nM,< 10000 nM,> 10000 nM,,,,CN1CCN(C(=O)c2cnc3ccc(-c4ccc5nc(N)oc5c4)cn23)CC1 [Compound 145]
< 100 nM,< 1000 nM,< 10000 nM,,,,CC1CN(c2cnc3ccc(-c4ccc5oc(N)nc5c4)cc3n2)CCO1 (stereo not shown) [Compound 173]
< 100 nM,< 1000 nM,,,,,C[C@@H]1CN(c2cnc3ccc(-c4ccc5oc(N)nc5c4)cc3n2)CCN1 [Compound 179]
< 100 nM,< 1000 nM,< 1000 nM,,,,CCNC(=O)c1cnc2ccc(-c3ccc4oc(N)nc4c3)cn12 [Compound 188]
< 100 nM,< 10000 nM,< 10000 nM,,,,CS(=O)(=O)CCN1CCN(C(=O)c2cnc3ccc(-c4ccc5oc(N)nc5c4)cn23)CC1 [Compound 198]
< 100 nM,< 10000 nM,< 10000 nM,,,,Nc1nc2cc(-c3ccc4ncc(C(=O)N5CCC(O)C5)n4c3)ccc2o1 (stereo not shown) [Compound 202]
< 100 nM,< 1000 nM,> 10000 nM,,,,Nc1nc2cc(-c3ccc4ncc(C(=O)N5CCC(N)CC5)n4c3)ccc2o1 [Compound 204]
< 100 nM,< 1000 nM,< 1000 nM,,,,CC(C)(N)C(=O)N1CCN(c2cnc3ccc(-c4ccc5oc(N)nc5c4)cc3n2)CC1 [Compound 213]
< 100 nM,< 1000 nM,< 10000 nM,,,,Nc1nc2cc(-c3ccc4ncc(N5CC(O)C5)nc4c3)ccc2o1 [Compound 216]
< 100 nM,< 1000 nM,< 100 nM,,,,Nc1nc2cc(-c3ccc4ncc(NCCCN5CCCC5)nc4c3)ccc2o1 [Compound 221]
< 1000 nM,< 1000 nM,> 10000 nM,,,,Nc1nc2cc(-c3ccc4nnc(-c5ccncc5)n4c3)ccc2o1 [Compound 229]
< 10000 nM,< 1000 nM,< 10000 nM,,,,CC(Oc1nc(-c2ccc3oc(N)nc3c2)cnc1N)C(F)(F)F (stereo not shown) [Compound 239]
< 1000 nM,> 10000 nM,> 10000 nM,,,,NC(=O)[C@H]1CCCN1C(=O)c1cnc2ccc(-c3ccc4oc(N)nc4c3)cn12 [Compound 260]
< 100 nM,< 1000 nM,> 10000 nM,,,,Nc1nc2cc(-c3ccc4ncc(N5CCN(C6CC6)CC5)nc4c3)ccc2o1 [Compound 261]
< 100 nM,< 10000 nM,,,,,Nc1nc2cc(-c3ccc4ncc(C(=O)N5CC[C@H](O)C5)n4c3)ccc2o1 [Compound 264]
< 100 nM,< 10000 nM,,,,,Nc1nc2cc(-c3ccc4ncc(C(=O)N5CC[C@@H](O)C5)n4c3)ccc2o1 [Compound 265]

IC50 (PI3K α (p110α/p85α)),IC50 (PI3K β (p110β/p85α)),IC50 (PI3K δ),IC50 (PI3K α (p110α/p85α); Table 4 (PI3K α inhibitors)),IC50 (PI3K β (p110β/p85α); Table 4 (PI3K α inhibitors)),IC50 (PI3K δ; Table 4 (PI3K α inhibitors)),SMILES
< 1000 nM,> 10000 nM,< 10000 nM,,,,CCN(CC)CCCn1cnc2ccc(-c3ccc4oc(N)nc4c3)cc2c1=O [Compound 281]
< 1000 nM,< 10000 nM,< 1000 nM,,,,Nc1nc2cc(-c3ccc4ncc(C(=O)NCCN5CCCC5)n4c3)ccc2o1 [Compound 296]
< 10000 nM,< 10000 nM,> 10000 nM,,,,Nc1nc2cc(-c3ccc4nnc(-c5cccnc5)n4c3)ccc2o1 [Compound 300]
< 1000 nM,< 1000 nM,> 10000 nM,,,,C[C@H]1CN(c2cnc3ccc(-c4ccc5nc(N)sc5c4)cc3n2)CCN1 [Compound 308]
> 10000 nM,> 10000 nM,> 10000 nM,,,,C[C@H]1CN(c2cnc3ccc(-c4cccc5c(N)nsc45)cc3n2)CCN1 [Compound 321]
< 1000 nM,< 1000 nM,< 10000 nM,,,,CC1(C)CN(c2cnc3ccc(-c4ccc5oc(N)nc5c4)cc3n2)CCN1 [Compound 336]
> 10000 nM,> 10000 nM,> 10000 nM,,,,C[C@H]1CN(c2cnc3cccc(-c4ccc5oc(N)nc5c4)c3n2)CCN1 [Compound 342]
< 100 nM,< 10000 nM,> 10000 nM,,,,Nc1nc2cc(-c3ccn4ncc(C(=O)N5CCCC5)c4c3)ccc2o1 [Compound 346]
< 100 nM,< 1000 nM,,,,,CN(C)[C@H]1CCN(c2cnc3ccc(-c4ccc5oc(N)nc5c4)cc3n2)C1 [Compound 382]
< 10000 nM,,,,,,CN1CCN(c2cnc3ccc(-c4ccc5oc(N)nc5c4)cc3n2)C(=O)C1 [Compound 390]
< 100 nM,> 10000 nM,,,,,C[C@H]1CCCN1C(=O)c1cnc2ccc(-c3ccc4oc(N)nc4c3)cn12 [Compound 482]
,> 10000 nM,> 10000 nM,,,,Cn1ncc2c(-c3ccc4ncc(C(=O)N5CCOCC5)n4c3)cncc21 [Compound 537]
,< 10000 nM,< 10000 nM,,,,Nc1nc2cc(-c3ccc4ncc(C(=O)NCCOCCO)n4c3)ccc2o1 [Compound 550]
,,,< 1000 nM,< 100 nM,,C[C@H]1CN(c2cnc3ccc(-c4ccc5oc(N)nc5c4)nc3n2)CCN1 [Compound 552]
,,,< 1000 nM,,> 10000 nM,Nc1nc2cc(-c3ccc4ncc(-c5cccnc5)nc4n3)ccc2o1 [Compound 554]
,,,< 1000 nM,< 1000 nM,,CN1CCN(c2cnc3ccc(-c4ccc5oc(N)nc5c4)nc3n2)CC1 [Compound 555]
,,,< 100 nM,,,Nc1nc2cc(-c3ccc4ncc(-c5cccnc5)cc4n3)ccc2o1 [Compound 567]
,,,< 100 nM,> 10000 nM,,C[C@@H]1CN(C2CN(c3cnc4ccc(-c5ccc6oc(N)nc6c5)nc4n3)C2)CCN1C [Compound 576]
,,,< 100 nM,,,NCC(=O)N1CCN(c2cnc3ccc(-c4ccc5oc(N)nc5c4)nc3n2)CC1 [Compound 584]
,,,< 100 nM,< 1000 nM,,C[C@@H]1CN(c2cnc3ccc(-c4ccc5oc(N)nc5c4)nc3c2)CCN1 [Compound 599]
,,,,> 10000 nM,> 10000 nM,C[C@@H]1COCCN1C1CN(c2cnc3ccc(-c4ccc5oc(N)nc5c4)nc3n2)C1 [Compound 600]
,,,< 100 nM,,< 1000 nM,C[C@@H]1CN(C2CN(c3cnc4ccc(-c5ccc6oc(N)nc6c5)nc4c3)C2)CCN1C [Compound 608]
,,,< 100 nM,,,Nc1nc2cc(-c3ccc4ncc(N5CC(N6CCN(C7CC7)CC6)C5)nc4n3)ccc2o1 [Compound 620]
,,,,> 10000 nM,> 10000 nM,Nc1nc2cc(-c3cnc4ccc(N5CCOCC5)nc4c3)ccc2o1 [Compound 624]
,,,,> 10000 nM,> 10000 nM,CC(C)(N)C(=O)N1CCN(c2ccc3ncc(-c4ccc5oc(N)nc5c4)cc3n2)CC1 [Compound 633]

SMILES,IC50 (PI3K α (p110α/p85α)),IC50 (PI3K β (p110β/p85α)),IC50 (PI3K δ),IC50 (PI3K α (p110α/p85α); Table 4 (PI3K α inhibitors)),IC50 (PI3K β (p110β/p85α); Table 4 (PI3K α inhibitors)),IC50 (PI3K δ; Table 4 (PI3K α inhibitors))
Nc1nc2cc(-c3ccc4nccc(-c5cn[nH]c5)c4c3)ccc2o1 [Compound 20],< 100 nM,< 100 nM,< 100 nM,,,
Nc1nc2cc(-c3ccc4ncn(C5CCNCC5)c(=O)c4c3)ccc2o1 [Compound 75],< 100 nM,< 10000 nM,> 10000 nM,,,
Nc1nc2cc(-c3ccc4ncc(C(=O)N5CCS(=O)(=O)CC5)n4c3)ccc2o1 [Compound 107],< 1000 nM,> 10000 nM,> 10000 nM,,,
C[C@H]1CN(c2cnc3ccc(-c4ccc5oc(N)nc5c4)cc3n2)CCN1 [Compound 178],< 100 nM,< 100 nM,< 1000 nM,,,
CN1CCN(C2CCN(c3cnc4ccc(-c5ccc6oc(N)nc6c5)cc4n3)CC2)CC1 [Compound 227],< 100 nM,< 1000 nM,< 100 nM,,,
CC(=O)Nc1nc2cc(-c3ccc4oc(N)nc4c3)ccc2o1 [Compound 244],> 10000 nM,> 10000 nM,> 10000 nM,,,
NC(=O)[C@@H]1CCCN1C(=O)C1CN(c2cnc3ccc(-c4ccc5oc(N)nc5c4)cc3n2)C1 [Compound 283],< 100 nM,> 10000 nM,> 10000 nM,,,
NC(=O)[C@H]1CCCN1C(=O)C1CN(c2cnc3ccc(-c4ccc5oc(N)nc5c4)cc3n2)C1 [Compound 284],< 100 nM,< 10000 nM,< 10000 nM,,,
CN(C)C1CCN(C(=O)c2cnc3ccc(-c4ccc5oc(N)nc5c4)cn23)CC1 [Compound 304],< 1000 nM,> 10000 nM,> 10000 nM,,,
Nc1nc2cc(-c3ccc4ncc(N5CC(N6CCNC(=O)C6)C5)nc4c3)ccc2o1 [Compound 325],< 100 nM,< 1000 nM,< 10000 nM,,,
C[C@H]1CN(c2cnc3cccc(-c4ccc5nc(N)oc5c4)c3n2)CCN1 [Compound 343],> 10000 nM,< 10000 nM,> 10000 nM,,,
